Assay results reported in US6506772B1, “Substituted [1,2,4]triazolo[1,5a]pyridine derivatives with activity as adenosine receptor ligands” (Hoffmann-La Roche Inc., priority 2000, dated 2003).

Key:
HA1 adenosine receptor = biological target: T1, HA1 adenosine receptor (Homo sapiens, UniProt P30542); experiment: Human adenosine A1 receptor affinity (Ki hA1); format: binding
T1 sequence (P30542 1-326): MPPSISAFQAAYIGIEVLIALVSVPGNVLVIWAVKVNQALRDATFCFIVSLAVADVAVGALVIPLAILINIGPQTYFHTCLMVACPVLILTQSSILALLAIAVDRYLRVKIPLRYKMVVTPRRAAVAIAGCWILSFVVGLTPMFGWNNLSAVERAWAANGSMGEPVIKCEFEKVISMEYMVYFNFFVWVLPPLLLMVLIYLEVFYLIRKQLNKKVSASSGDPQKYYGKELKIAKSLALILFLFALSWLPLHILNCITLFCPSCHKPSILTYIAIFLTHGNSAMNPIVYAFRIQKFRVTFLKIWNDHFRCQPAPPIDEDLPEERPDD

[1] = biological target: T2, human adenosine A2A receptor (Homo sapiens, UniProt P29274); experiment: Human adenosine A2A receptor [3H]-SCH-58261 binding assay; conditions: for selectivity (A1/A2a): ratio KiHA1 divided by KiHA2A; for Ki: recombinant human A2A in CHO cell membranes, [3H]-SCH-58261, Cheng-Prussoff, read-out: Ki hA2A
T2 construct: expressed in transfected cells; host or cells: CHO cells, Semliki Forest virus expression system; membrane preparation
T2 sequence (P29274 whole entry): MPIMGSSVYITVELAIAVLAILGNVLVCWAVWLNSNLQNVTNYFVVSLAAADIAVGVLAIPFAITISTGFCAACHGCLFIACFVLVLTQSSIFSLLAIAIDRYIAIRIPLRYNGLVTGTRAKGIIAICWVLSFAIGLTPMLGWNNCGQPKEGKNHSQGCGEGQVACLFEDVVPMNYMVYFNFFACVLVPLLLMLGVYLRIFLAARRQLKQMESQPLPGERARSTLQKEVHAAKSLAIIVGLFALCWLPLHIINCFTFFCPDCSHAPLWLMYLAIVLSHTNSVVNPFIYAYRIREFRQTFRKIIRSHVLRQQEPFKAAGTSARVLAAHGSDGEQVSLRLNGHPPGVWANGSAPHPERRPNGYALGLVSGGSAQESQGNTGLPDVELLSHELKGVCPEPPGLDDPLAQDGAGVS

Row | SMILES | Ki (HA1 adenosine receptor) | selectivity (A1/A2a) [1] | Ki [1]
1 | COC[C@H]1CCCN1C(=O)c1cc(N)n2nc(-c3ccccn3)nc2c1 [Example 425, (5-Amino-2-pyridin-2-yl-[1,2,4]triazolo[1,5-a]pyridin-7-yl)-(R-2-methoxymethyl-pyrrolidin-1-yl)-methanone] | 1290 nM | 31.7 | 40.8 nM
2 | COC[C@@H]1CCCN1C(=O)c1cc(N)n2nc(-c3ccccn3)nc2c1 [Example 426, (5-Amino-2-pyridin-2-yl-[1,2,4]triazolo[1,5-a]pyridin-7-yl)-(S-2-methoxymethyl-pyrrolidin-1-yl)-methanone] | 2050 nM | 17.2 | 119 nM
3 | CCCCN(CCC)C(=O)c1cc(N)n2nc(-c3ccccn3)nc2c1 [Example 427, 5-Amino-2-pyridin-2-yl-[1,2,4]triazolo[1,5-a]pyridine-7-carboxylic acid butyl-propyl-amide] | 1190 nM | 11.7 | 102 nM
4 | C=CCN(C(=O)c1cc(N)n2nc(-c3ccccn3)nc2c1)C1CCCC1 [Example 429, 5-Amino-2-pyridin-2-yl-[1,2,4]triazolo[1,5-a]pyridine-7-carboxylic acid allyl-cyclopentyl-amide] | 474 nM | 15.3 | 31 nM
5 | CCC1CCC(C)N(C(=O)c2cc(N)n3nc(-c4ccccn4)nc3c2)C1 (stereo not drawn) [Example 430, (5-Amino-2-pyridin-2-yl-[1,2,4]triazolo[1,5-a]pyridin-7-yl)-(5-ethyl-2-methyl-piperidin-1-yl)-methanone] | 689 nM | 10.8 | 63.6 nM
6 | CCN(Cc1ccncc1)C(=O)c1cc(N)n2nc(-c3ccccn3)nc2c1 [Example 431, 5-Amino-2-pyridin-2-yl-[1,2,4]triazolo[1,5-a]pyridine-7-carboxylic acid ethyl-pyridin-4-ylmethyl-amide] | 1030 nM | 31.2 | 33.1 nM
7 | CN(C)C(=O)C1CCCN1C(=O)c1cc(N)n2nc(-c3ccccn3)nc2c1 (stereo not drawn) [Example 432, 1-(5-Amino-2-pyridin-2-yl-[1,2,4]triazolo[1,5-a]pyridine-7-carbonyl)-pyrrolidine-2-carboxylic acid dimethyl amide] | 2400 nM | 27.2 | 88 nM
8 | CC(C)N(Cc1ccccc1)C(=O)c1cc(N)n2nc(-c3ccccn3)nc2c1 [Example 433, 5-Amino-2-pyridin-2-yl-[1,2,4]triazolo[1,5-a]pyridine-7-carboxylic acid benzyl-isopropyl-amide] | 185 nM | 11.8 | 15.6 nM
9 | Nc1cc(C(=O)N(Cc2ccccc2)Cc2ccccc2)cc2nc(-c3ccccn3)nn12 [Example 435, 5-Amino-2-pyridin-2-yl-[1,2,4]triazolo[1,5-a]pyridine-7-carboxylic acid dibenzylamide] | 121 nM | 19 | 6.4 nM
10 | CCN(CCOC)C(=O)c1cc(N)n2nc(-c3nccs3)nc2c1 [Example 498, 5-Amino-2-thiazol-2-yl-[1,2,4]triazolo[1,5-a]pyridine-7-carboxylic acid ethyl-(2-methoxy-ethyl)-amide] | 3990 nM | 21 | 190 nM
